Assay results taken from patent US20220404374A1, “METHOD FOR DETERMINING WHETHER OR NOT A SUBJECT HAS A PARKINSONIAN CONDITION” (UNIVERSITE DU LUXEMBOURG, priority 2019, published 2022).

How the values were obtained:
[1] = tested on: HiTox strains of yeast expressing human alpha-synuclein; assay: toxicity assays of 2-HP in HiTox strains of yeast expressing human alpha-synuclein (growth phenotyping); type: cell-based
Method: Yeast cells were grown in synthetic complement (SC) media containing 6.7 g/L yeast nitrogen base without amino acids, 5 g/L ammonium sulfate supplemented with 2 g/L SC. Media was autoclaved and the carbon source (8% raffinose or galactose) was added to a final concentration of 2%.
Four fresh single colonies of the Hitox strain and its respective control strain were inoculated from SC-2% glucose plates into 5 mL SC-2% raffinose and incubated overnight with shaking (200 rpm) at 30° C. After ≈20 h, overnight cultures were diluted to OD 0.5 and 2 μL of the yeast cultivation was added to 78 μL drug containing media to a final optical density of 0.0125 in a 384-well microplate. 2-HP was diluted in SC-2% raffinose/galactose and tested at different concentrations (1-100 mM). Finally, the plates are measured in a microplate reader (TECAN™ Infinite M200Pro), at an interval of 10 minutes during 72 h at 30° C. Yeast growth phenotyping was performed as previous described (Jung et al. 2015). Final biomass was corrected using the GATHODE software (Jung et al. 2015). The OD600 at 48 h was taken for the quantification.

enteric neurons = assay: toxicity of 2-HP in enteric neurons (MTT cell viability assay); type: cell-based
Method: Enteric neurons were cultured in differentiation medium, consisting on Neurobasal (Invitrogen, 21103049) supplemented with 1:200 N2 (Invitrogen, 17502048), 1:100 L-Glutamine (Invitrogen, 25030-024), 1:100 B-27 without Vitamin A (Life Technologies, 12587-010), 1:100 Penicillin/Streptomycin (Invitrogen, 15140122), 25 ng/mL GDNF (Peprotech, 450-10) and 100 μM Ascorbic Acid (Sigma, A5960). Cells were cultured for 21 days in a 6-well plate, then detached with Accutase (Sigma, A6964), and replated into a 96-well plate. Cells were maintained under differentiating conditions until day 31, when they were treated with increasing concentrations of 2-hydroxypyridine (Sigma, H56800). Tested concentrations were as follows: 1 μM, 3 μM, 6 μM, 10 μM, 30 μM, 60 μM, 100 μM, 300 μM, 600 μM, 1 mM and 3 mM.
2-hydroxypyridine was reconstituted to 10 mM in the differentiation medium described above.
Cells were treated for 24 h, then cell viability was assessed performing a Tetrazolium (MTT) assay. Thiazolyl Blue tetrazolium Bromide (Sigma, M5655) was reconstituted to a 5 mg/mL solution in differentiation media and filtered. 10 μL of the solution were then added to every well containing 100 μL of media. Plate was incubated for 2 h in a normal incubator (37° C., 5% CO2). […] Cells were disaggregated by pipetting vigorously and absorbance was read at 570 nm, using the microplate Cytation 5M reader (Biotek).

IL-1b mRNA expression = IL-1b mRNA expression (qPCR) in murine bone-marrow derived macrophages; type: cell-based; conditions: 10 mM 2-HP, murine BMDMs
Method: NLRP3 inflammasome activation is thought to play a role in the pathogenesis of neurodegenerative disorders, and increased levels of this inflammasome and of the related cytokine IL-1b have been detected in Parkinson's patients (Guan & Han, 2020). […] Inflammasome activation was evaluated with qPCR for IL-1b expression (normalized to β-actin), considering the fold change relative to 0 mM 2-HP of each time point.

wildtype mice = assay: adhesive removal test in mice after 2-HP injection into the brain; type: in vivo; conditions: higher 2-HP concentrations injected into the brain, 15 days post-injection, vs PBS
Method: The in vivo work testing for effects of 2-HP in a mouse model lead to results from a small-scale 15-day experiment. In this experiment, 2-HP was injected at several concentrations (5, 50 and 100 mM) into the brain of transgenic mice overexpressing human alpha-synuclein, and of wildtype control mice.

[2] = control strain, higher concentration of 2-HP (FIG. 3C)

Oc1ccccn1 [2-HP, 2-hydroxypyridine]
dose at which 2-HP is selectively toxic to transgenic alpha-synuclein expressing yeast ([1]; HiTox yeast expressing human alpha-synuclein vs control strain): 1 mM
lag time of growth curve [1, 2]: prolonged
yield of growth curve [1, 2]: unaffected
toxic dose-response, galactose ([1]; galactose, alpha-synuclein induced (FIG. 3B), HiTox strains vs control strain): A toxic dose-response can be observed in the HiTox strains, but not in the control strain
toxic dose-response, raffinose ([1]; raffinose, alpha-synuclein not induced (FIG. 3A)): A toxic dose-response can be observed
toxicity on enteric neurons at 3 mM (enteric neurons): significant changes
LD50 (enteric neurons; enteric neurons, 24 h treatment, MTT): around 3 mM
increase in IL-1b mRNA (fold change relative to 0 mM 2-HP, normalized to β-actin) (IL-1b mRNA expression; 3 hours): 3.2 fold
increase in IL-1b mRNA (fold change relative to 0 mM 2-HP, normalized to β-actin) (IL-1b mRNA expression; 24 hours): 1.5 fold
performance in the adhesive removal test (sensorimotor function) (wildtype mice): perform worse
